Key:
[1] = target: T1, human NPY Y5 receptor (Homo sapiens, UniProt Q15761); test: Affinity for NPY Y5 receptor ([125I] peptide YY binding, CHO cell membranes); settings: inhibition of specific [125I] peptide YY binding, membranes of CHO cells expressing NPY Y5 receptor
T1 construct: expressed in transfected cells
T1 sequence (Q15761 1-445): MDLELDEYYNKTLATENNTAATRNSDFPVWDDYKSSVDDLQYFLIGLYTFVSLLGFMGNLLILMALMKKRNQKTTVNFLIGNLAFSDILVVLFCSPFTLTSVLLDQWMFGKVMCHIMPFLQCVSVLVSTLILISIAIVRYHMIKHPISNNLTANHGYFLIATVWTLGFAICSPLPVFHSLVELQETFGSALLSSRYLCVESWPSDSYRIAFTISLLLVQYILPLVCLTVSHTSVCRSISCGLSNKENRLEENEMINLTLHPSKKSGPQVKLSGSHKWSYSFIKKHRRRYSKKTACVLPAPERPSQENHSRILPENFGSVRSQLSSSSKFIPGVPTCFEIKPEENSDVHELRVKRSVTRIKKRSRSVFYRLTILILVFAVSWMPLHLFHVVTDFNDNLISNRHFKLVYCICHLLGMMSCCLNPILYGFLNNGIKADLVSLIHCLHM
Description: Experiment 1 Affinity for NPY Y5 Receptor
cDNA sequence encoding a human NPY Y5 receptor (WO096/16542) was cloned in the expression vector pME18S (Takebe et al. Mol. Cell. Biol. 8, 8957). The obtained expression vector was transfected into a host CHO cells by using a Lipofect AMINE reagent (Trademark, Gibco BRL Co., Ltd.) according to an instruction protocol to obtain the cells that stably express NPY Y5 receptor.
The membranes prepared from the above CHO cells expressing NPY Y5 receptor, the compound of the present invention and 30,000 cpm [^125I] peptide YY (60 pM of final concentration: Amersham) were incubated in the assay buffer (20 mM HEPES-Hanks buffer containing 0.1% bovine serum albumin, pH 7.4) at 25° C. for 2 hours, and then the mixture was filtered with a glassfilter GF/C treated with polyethyleneimine. After the glassfilter was washed with 50 mM Tris-HCl buffer (pH 7.4), the radioactivity on the filter was measured with a gamma counter. The non-specific binding was detected in the presence of 200 nM of peptide YY. The 50% inhibitory concentration of the test compound against the specific peptide YY binding (IC50 value) was calculated (Inui, A. et al. Endocrinology 131, 2090-2096 (1992)).

[2] = target: T1, human NPY Y5 receptor; test: cAMP production inhibitory activity in CHO cells; format: cell-based; settings: against 50 nM NPY inhibition of forskolin stimulated cAMP, CHO cells expressing human NPY Y5 receptor
Method: Experiment 2 cAMP production inhibitory activity in CHO cells
After CHO cells expressing human NPY Y5 receptor were incubated in the presence of 2.5 mM isobutylmethylxanthine (SIGMA) at 37° C. for 20 min., the compound of the present invention was added and incubated for 5 min. Then, 50 nM NPY and 10 μM forskolin (SIGMA) were added to the cells and incubated for 30 min. After the reaction was terminated by adding 1N HCl, the amount of cAMP in the supernatant was measured with EIA kit (Amersham LIFE SCIENCE).

| Compound | IC50 [1] [nM] | IC50 [2] [nM] |
| --- | --- | --- |
| CC(C)(C)S(=O)(=O)NC1CCC(C(=O)Nc2ccc3c(c2)CCC3=NO)CC1 (stereo not shown) [Compound I-198] | 7.2 | 33 |
| CC(C)(C)S(=O)(=O)NC1CCC(C(=O)Nc2ccc(-c3csnn3)cc2)CC1 (stereo not shown) [Compound I-79] | 0.59 | 25 |
| CC(C)(C)S(=O)(=O)NC1CCC(C(=O)Nc2cccc(Oc3ccccc3)c2)CC1 (stereo not shown) [Compound I-134] | 0.5 | 10 |
| CC(=O)c1ccc(NC(=O)C2CCC(NS(=O)(=O)C(C)(C)C)CC2)cc1 (stereo not shown) [Compound I-127] | 1.4 | 30.4 |
| CC(C)CN1C(=O)c2ccc(NC(=O)[C@H]3CC[C@H](NS(=O)(=O)C(C)C)CC3)cc2C1=O [Ia-231] | 0.29 |  |
| CCCCc1ccc(NC(=O)c2ccc(N[S+]([O-])C(C)(C)Cl)cc2)cc1 (stereo not shown) [Compound I-92] | 7 | 61 |
| Cc1ccc(NC(=O)C2CCC(NS(=O)(=O)C(C)(C)C)CC2)cc1 (stereo not shown) [Ia-8] | 2.9 | 34 |
| CCCCOc1ccc(NC(=O)C2CCC(NS(=O)(=O)C(C)(C)C)CC2)cc1 (stereo not shown) [Compound I-164] | 0.71 | 5.9 |
| CC(C)(C)S(=O)(=O)Nc1ccc(C(=O)Nc2ccc3sccc3c2)cc1 [Ia-133] | 1.7 | 8.8 |
| CC(C)(C)S(=O)(=O)NC1CCC(C(=O)Nc2cccc(S(=O)(=O)NC3CCCCC3)c2)CC1 (stereo not shown) [Ia-168] | 0.95 | 13 |
| COc1ccc(NC(=O)C2CCC(NS(=O)(=O)C(C)(C)C)CC2)c(Sc2ccccc2)n1 (stereo not shown) [Compound I-141] | 0.42 | 7.4 |
| CCOCCN(CCOCC)c1ccc(NC(=O)C2CCC(NS(=O)(=O)C(C)(C)C)CC2)cc1 (stereo not shown) [Ia-45] | 4.8 | 42 |
| CCCCOc1cccc(CNC(=O)C2CCC(NS(=O)(=O)C(C)(C)C)CC2)c1 (stereo not shown) [Compound I-187] | 0.58 | 13 |
| CC(C)S(=O)(=O)NC1CCC(C(=O)Nc2ccc(N3CCC(O)(c4ccc(Cl)cc4)CC3)cc2)CC1 (stereo not shown) [Ia-84] | 0.25 | 13 |
| CCCCc1ccc(NC(=O)N2CCC(NS(=O)(=O)C(C)(C)C)CC2)cc1 [Compound I-120, 4-t-butylsulfonylaminopiperidine-1-carboxylic acid(4-butylphenyl)amide] | 1.4 | 4.8 |
| CC(C)[C@@H]1CN(c2ccc(NC(=O)C3CCC(NS(=O)(=O)C(C)(C)C)CC3)cc2)CCO1 (stereo partly shown) [Ia-47] | 0.82 | 3.8 |
| CCCCOc1ccc(NC(=O)CCCCNS(=O)(=O)C(C)CC)cc1 (stereo not shown) [Compound I-116] | 1.2 | 11 |
| CC(C)(C)S(=O)(=O)Nc1ccc(C(=O)Nc2ccc(-c3ncco3)cc2)cc1 [Ia-211] | 4.8 | 240 |
| CC(C)(C)S(=O)(=O)NC1CCC(C(=O)Nc2cccc(NC(=O)C3CCCCC3)c2)CC1 (stereo not shown) [Ia-189] | 3.5 | 95 |
| CC(C)(C)S(=O)(=O)NC1CCC(C(=O)Nc2cccc(OC3CCCCC3)c2)CC1 (stereo not shown) [Ia-176] | 0.63 | 5.1 |

| Compound | IC50 [1] [nM] | IC50 [2] [nM] |
| --- | --- | --- |
| CC(C)(C)S(=O)(=O)NC1CCC(C(=O)Nc2ccc(NS(=O)(=O)c3ccccc3)cc2)CC1 (stereo not shown) [Ia-64] | 7.1 | 96 |
| CCC1(CC)CN(c2ccc(NC(=O)C3CCC(NS(=O)(=O)C(C)(C)C)CC3)cc2)CCO1 (stereo not shown) [Ia-48] | 1.2 | 6.1 |
| CC(C)S(=O)(=O)Nc1ccc(C(=O)Nc2ccc3c(c2)CCC3)cc1 [Ia-163] | 7 | 400 |
| CC(C)S(=O)(=O)NC1CCN(C(=O)Nc2ccc(C3CCCCC3)cc2)CC1 [Ia-224] | 0.1 | 1.2 |
| C[C@@H]1CN(S(=O)(=O)c2cccc(NC(=O)C3CCC(NS(=O)(=O)C(C)(C)C)CC3)c2)C[C@H](C)O1 (stereo partly shown) [Ia-55] | 1.1 | 27 |
| CC(C)(C)S(=O)(=O)N[C@H]1CC[C@H](C(=O)Nc2ccc(-c3nnnn3-c3ccccc3)cc2)CC1 [Ia-71] | 1.3 | 12 |
| CC(C)(C)S(=O)(=O)NC1CCC(C(=O)Nc2cccc3c2Cc2ccccc2-3)CC1 (stereo not shown) [Ia-109] | 0.6 | 3.9 |
| CC(C)(C)S(=O)(=O)NC1CCC(C(=O)Nc2ccc(OC3CCCC3)cc2)CC1 (stereo not shown) [Ia-164] | 0.38 | 4.7 |
| CC(C)(C)S(=O)(=O)NC1CCC(C(=O)Nc2cccc(C3CCOCC3)c2)CC1 (stereo not shown) [Ia-246] | 0.26 | 20 |
| CCCCOc1ccc(NC(=O)C2CCC(NS(=O)(=O)C(C)(C)C)CC2)c([N+](=O)[O-])c1 (stereo not shown) [Compound I-171] | 2.4 | 71 |
| Cn1nnnc1-c1ccc(NC(=O)[C@H]2CC[C@H](NS(=O)(=O)C(C)(C)C)CC2)cc1 [Ia-69] | 2.7 | 33 |
| CC(C)(C)S(=O)(=O)NC1CCC(C(=O)Nc2cc(F)cc(F)c2)CC1 (stereo not shown) [Ia-136] | 1.6 | 13 |
| CC(C)(C)S(=O)(=O)NC1CCC(C(=O)Nc2ccc(Oc3ccccc3)nc2)CC1 (stereo not shown) [Compound I-168] | 2.1 | 32 |
| CC(C)(C)S(=O)(=O)NC1CCC(C(=O)Nc2ccc(N3CC=CC3)cc2)CC1 (stereo not shown) [Ia-110] | 0.3 | 1.1 |
| CC(C)(C)S(=O)(=O)NC1CCC(C(=O)Nc2cccc3c2CCCC3)CC1 (stereo not shown) [Ia-111] | 5.1 | 28 |
| CC(C)(C)S(=O)(=O)NC1CCC(C(=O)Nc2ccc(C3CCOCC3)cc2)CC1 (stereo not shown) [Ia-248] | 0.27 | 17 |
| Cc1cc(=O)oc2cc(NC(=O)[C@H]3CC[C@H](NS(=O)(=O)C(C)C)CC3)ccc12 [Ia-227] | 0.59 |  |
| CC(C)CN1C(=O)c2ccc(NC(=O)[C@H]3CC[C@H](NS(=O)(=O)C(C)(C)C)CC3)cc2C1=O [Ia-230] | 0.32 |  |
| CC(C)S(=O)(=O)N[C@H]1CC[C@H](C(=O)Nc2ccc3oc(=O)ccc3c2)CC1 [Ia-76] | 2.2 |  |
| Cc1cc(=O)oc2cc(NC(=O)CCCCNS(=O)(=O)C(C)C)ccc12 [Ia-229] | 1.9 |  |

| Compound | IC50 [1] [nM] | IC50 [2] [nM] |
| --- | --- | --- |
| CC(C)(C)S(=O)(=O)N[C@H]1CC[C@H](C(=O)Nc2ccc3c(c2)C(=O)N(c2ccccc2)C3=O)CC1 [Ia-79] | 0.82 |  |
| CC(C)CN1C(=O)c2ccc(NC(=O)CCCCNS(=O)(=O)C(C)(C)C)cc2C1=O [Ia-232] | 0.7 |  |
| CC(C)(C)S(=O)(=O)NCCCCC(=O)Nc1ccc(N2CCCS2(=O)=O)cc1 [Ia-255] | 3.2 |  |
| Cc1cc(C(=O)NC(C)C)ccc1NC(=O)N1CCC(NS(=O)(=O)C(C)(C)C)CC1 [Ia-243] | 1.3 |  |
| CC(C)(C)S(=O)(=O)NC1CCC(C(=O)Nc2ccc3occc3c2)CC1 (stereo not shown) [Ia-250] | 1.9 |  |
| CC(C)(C)Oc1ccc(NC(=O)CCCCNS(=O)(=O)C(C)(C)C)cc1 [Ia-253] | 0.53 |  |
| CC(C)(C)S(=O)(=O)NC1CCN(C(=O)Nc2ccc(C(F)(F)F)cn2)CC1 [Ia-241] | 1.9 |  |
| CC(C)CN1C(=O)c2ccc(NC(=O)CCCCNS(=O)(=O)C(C)C)cc2C1=O [Ia-233] | 0.63 |  |
| CC(C)S(=O)(=O)NC1CCC(C(=O)Nc2ccc(-c3ncco3)cc2)CC1 (stereo not shown) [Ia-184] | 0.38 |  |
| CC(C)(C)S(=O)(=O)NC1CCC(C(=O)Nc2cccc(-c3ccco3)c2)CC1 (stereo not shown) [Ia-209] | 0.55 |  |
| CC(C)S(=O)(=O)NC1CCC(C(=O)Nc2ccc(OC(C)(C)C)cc2)CC1 (stereo not shown) [Ia-252] | 1.2 |  |
| Cc1cc(=O)oc2cc(NC(=O)CCCCNS(=O)(=O)C(C)(C)C)ccc12 [Ia-228] | 0.96 |  |
| CC(C)(C)S(=O)(=O)NC1CCC(C(=O)Nc2nc3ccccc3s2)CC1 (stereo not shown) [Ia-235] | 5.5 |  |
| CC(C)S(=O)(=O)NC1CCC(C(=O)Nc2ccc(OC3CCOCC3)cc2)CC1 (stereo not shown) [Ia-258] | 1.8 |  |
| CC(C)(C)S(=O)(=O)NCCCCC(=O)Nc1ccc(OC2CCOCC2)cc1 [Ia-257] | 8.6 |  |
| CC(C)(C)S(=O)(=O)NC1CCC(C(=O)Nc2ccc(-c3ccc(-c4ccccc4)cc3)cc2)CC1 (stereo not shown) [Compound I-136] | 2.8 |  |
| CC(C)(C)S(=O)(=O)NC1CCN(C(=O)Nc2ccc(N3CCCS3(=O)=O)cc2)CC1 [Ia-256] | 5.7 |  |
| COc1ccc(Cl)cc1NC(=O)C1CCC(NS(=O)(=O)C(C)(C)C)CC1 (stereo not shown) [Ia-35] | 1.8 |  |
| CC(C)(C)Oc1ccc(NC(=O)N2CCC(NS(=O)(=O)C(C)(C)C)CC2)cc1 [Ia-254] | 2 |  |

Source: patent US7265130B2, “NPY Y5 antagonist” (Shionogi & Co., Ltd., priority 1999, dated 2007)
